These are literature values, as cited in patent US9078816B2, “Buccal, polar and non-polar spray containing ondansetron” (Suda Ltd., priority 1997, dated 2015).

The conditions of data set [1]: include headaches, constipation, and dizziness.

Take `Cc1nccn1CC1CCc2c(c3ccccc3n2C)C1=O` (stereo not drawn) [Ondansetron]: the metabolism result (liver) was “extensively metabolized by the liver”. Under “oral administration”, the oral bioavailability result is on record as “about 60%”. Also, the adverse effects result in data set [1] is on record as “mild”.
